Values quoted from earlier work in US5681581A, “Controlled release pharmaceutical formulations of 3'-azido-3'-deoxythymidine and methods of use” (priority 1995, dated 1997).
Entries after “also recorded” stand apart in the source; their conditions may differ.

Tests used:
reverse transcriptase = details: result in words
DNA polymerase = details: result in words
bone marrow cells = details: than AZT
[1] = intravenous AZT 2.5 mg/kg, patients
HIV [2] = details: result in words
[3] = result in words
[4] = system: cells of HIV infected patients; details: HIV infected patients taking AZT
[5] = animals
[6] = capsules and liquid solutions, oral
HIV [7] = system: HIV

Cc1cn([C@H]2C[C@H](N)[C@@H](COP(=O)(O)OP(=O)(O)OP(=O)(O)O)O2)c(=O)[nH]c1=O [AMT 5'triphosphate]
inhibition of reverse transcriptase (reverse transcriptase): inhibitor of HIV reverse transcriptase
inhibition of DNA polymerase (DNA polymerase): inhibitor of DNA polymerase

Cc1cn([C@H]2C[C@H](N)[C@@H](CO)O2)c(=O)[nH]c1=O [AMT, 3'-amino-3'-deoxythymidine]
toxicity to bone marrow cells relative to AZT (bone marrow cells): 5-7 times more toxic
AMT level relative to AZT by AUC [1]: about twenty
binding of the reverse transcriptase enzyme (reverse transcriptase): competitive binding
antiviral activity (HIV [2]): no antiviral activity; also recorded: poor antiviral activity
effect on the anti-HIV action of AZT (HIV [2]): antagonistic effect
anti-cancer effects [3]: potent anti-cancer effects

Cc1cn([C@H]2C[C@H](N=[N+]=[N-])[C@@H](CO)O2)c(=O)[nH]c1=O [AZT, 3'-azido-3'-deoxythymidine]
inhibition of reverse transcriptase (reverse transcriptase): inhibitor of reverse transcriptase
relationship between phosphorylated AZT and dosage or blood levels [4]: showed no relationship
AMT levels by oral route [5]: higher levels of AMT
absorption from the gastrointestinal tract [6]: rapidly absorbed
effectiveness in asymptomatic sero-positive patients (HIV [7]; 1500 mg per day): not as effective as 500 mg per day
toxicity of dose (HIV [7]; human, in vivo): too toxic

Cc1cn([C@H]2C[C@H](N=[N+]=[N-])[C@@H](COP(=O)(O)OP(=O)(O)OP(=O)(O)O)O2)c(=O)[nH]c1=O [triphosphate form]
inhibitory effect on viral transcription (HIV [2]): most inhibitory effect
